This experiment has as its system B6C3F1 mice, ip Sarcoma M5076, median survival T/C. Briefly: NCI In Vivo Anticancer Drug Screen. Data for tumor model Sarcoma M5076 (intraperitoneal) in B6C3F1 mice. The following applies: endpoint: median survival time, higher = longer survival. The procedure, abridged: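 Mice carrying the transplanted tumour received compound treatment. Survival was recorded, and each value is the treated-group measurement divided by that of the vehicle-dosed control group.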

The mark [1] stands for this setting: dose: 50.0 mg/kg/injection, schedule: Q04DX004 (ip), vehicle: distilled water + Tween-80.
The mark [2] stands for this setting: dose: 100.0 mg/kg/injection, schedule: Q04DX004 (ip), vehicle: distilled water + Tween-80.
[3] abbreviates: dose: 200.0 mg/kg/injection, schedule: Q04DX004 (ip), vehicle: distilled water + Tween-80.
Where [4] appears, read: dose: 50.0 mg/kg/injection, schedule: Q04DX004 (ip), vehicle: Klucel (hydroxypropylcellulose) (HPC).
The mark [5] stands for this setting: dose: 200.0 mg/kg/injection, schedule: Q04DX004 (ip), vehicle: Klucel (hydroxypropylcellulose) (HPC).
Where [6] appears, read: dose: 25.0 mg/kg/injection, schedule: Q04DX004 (ip), vehicle: water.
The mark [7] stands for this setting: dose: 50.0 mg/kg/injection, schedule: Q04DX004 (ip), vehicle: water.
The mark [8] stands for this setting: dose: 100.0 mg/kg/injection, schedule: Q04DX004 (ip), vehicle: water.

Several values for one entry are separate records, joined by “and”; a condition that tells them apart may be missing. Equal values may be shown once. Toxic doses and inconclusive results are not listed.

For the molecule `Nc1nc2c(ncn2C2CC3[O][Sn]([c]4ccccc4)([c]4ccccc4)[O]CC3O2)c(=O)[nH]1` (centres undefined), the T/C (dose: 25.0 mg/kg/injection, schedule: Q04DX004 (ip), vehicle: distilled water + Tween-80) is 99 % of control; the T/C under setting [1] was 90 % of control; the T/C under setting [2] is 88 % of control; the T/C under setting [3] was 92 % of control.
With `COc1cc(C2c3cc4c(cc3[C@@H](OC3OC5CO[C@@H](C)OC5C(O)C3O)[C@H]3COC(=O)C23)OCO4)cc(OC)c1OC` (some centres undefined), the T/C runs as follows: (dose: 25.0 mg/kg/injection, schedule: Q04DX004 (ip), vehicle: saline) 116 % of control; under setting [4], 118 % of control; (dose: 50.0 mg/kg/injection, schedule: Q04DX004 (ip), vehicle: saline) 110 % of control; (dose: 50.0 mg/kg/injection, schedule: Q04DX004 (ip), vehicle: suspension in saline) 103 % of control; (dose: 100.0 mg/kg/injection, schedule: Q04DX004 (ip), vehicle: saline) 122 % of control; (dose: 100.0 mg/kg/injection, schedule: Q04DX004 (ip), vehicle: suspension in saline) 99 % of control. Besides, the T/C under setting [5] was 171 % of control; the T/C (dose: 200.0 mg/kg/injection, schedule: Q04DX004 (ip), vehicle: suspension in saline) was 123 % of control; the T/C (dose: 300.0 mg/kg/injection, schedule: Q04DX004 (ip), vehicle: suspension in saline) is 168 % of control; the T/C (dose: 400.0 mg/kg/injection, schedule: Q04DX004 (ip), vehicle: Klucel (hydroxypropylcellulose) (HPC)) was 233 % of control.
Regarding `O=C1NC(=O)C23CCCCc4cccc(c42)C(=O)C13` (centres undefined), the T/C is, setting by setting: under setting [6], 103 % of control; under setting [7], 103 % of control; under setting [8], 107 % of control; (dose: 200.0 mg/kg/injection, schedule: Q04DX004 (ip), vehicle: water) 103 % of control; (dose: 400.0 mg/kg/injection, schedule: Q04DX004 (ip), vehicle: water) 106 % of control.
As for `O=C1N[C@@H]([C@H]2CC[C@H](Cl)CN2)C(=O)N[C@H]1[C@H]1CC[C@H](Cl)CN1`, the T/C was 115 % of control (dose: 0.5 mg/kg/injection, schedule: Q04DX005 (ip), vehicle: saline); 185 % of control (dose: 2.0 mg/kg/injection, schedule: Q04DX005 (ip), vehicle: saline); 319 % of control (dose: 4.0 mg/kg/injection, schedule: Q04DX005 (ip), vehicle: saline); 319 % of control (dose: 8.0 mg/kg/injection, schedule: Q04DX005 (ip), vehicle: saline).
For `COc1ccc2c(c1)n([O-])c1ccccc1[n+]2=O`, the T/C runs as follows: (dose: 25.0 mg/kg/injection, schedule: Q04DX004 (ip), vehicle: saline with Tween-80) 115 % of control; (dose: 50.0 mg/kg/injection, schedule: Q04DX004 (ip), vehicle: saline with Tween-80) 117 % of control; (dose: 100.0 mg/kg/injection, schedule: Q04DX004 (ip), vehicle: saline with Tween-80) 121 % of control.
Take `COC1C(CO)OC(n2c3c(Cl)cccc3c3c4c(c5c6cccc(Cl)c6[nH]c5c32)C(=O)NC4=O)C(O)C1O` (centres undefined): the T/C by setting is: (dose: 46.75 mg/kg/injection, schedule: Q04DX004 (ip), vehicle: distilled water + Tween-80) 113 % of control; under setting [1], 116 % of control; (dose: 93.5 mg/kg/injection, schedule: Q04DX004 (ip), vehicle: distilled water + Tween-80) 118 % of control; under setting [2], 117 % of control and 118 % of control; under setting [3], 118 % of control; (dose: 374.0 mg/kg/injection, schedule: Q04DX004 (ip), vehicle: distilled water + Tween-80) 108 % of control. In addition, the T/C runs as follows: (dose: 748.0 mg/kg/injection, schedule: Q04DX004 (ip), vehicle: distilled water + Tween-80) 115 % of control; (dose: 800.0 mg/kg/injection, schedule: Q04DX004 (ip), vehicle: distilled water + Tween-80) 117 % of control.
Turning to `Nc1n[n+](-c2ccccc2)no1`, the T/C reads like this: (dose: 6.25 mg/kg/injection, schedule: Q04DX004 (ip), vehicle: water) 111 % of control and 117 % of control; (dose: 12.5 mg/kg/injection, schedule: Q01DX009 (ip), vehicle: water) 151 % of control; (dose: 12.5 mg/kg/injection, schedule: Q04DX004 (ip), vehicle: water) 118 % of control; (dose: 25.0 mg/kg/injection, schedule: Q01DX009 (ip), vehicle: water) 168 % of control; (dose: 50.0 mg/kg/injection, schedule: Q01DX009 (ip), vehicle: water) 172 % of control and 235 % of control.
`CC(=O)/C(=C\c1ccc(/C=C(\C(C)=O)C(=O)CCN(C)C)cc1)C(=O)CCN(C)C`: the T/C (dose: 400.0 mg/kg/injection, schedule: Q04DX004 (ip), vehicle: saline with Tween-80) is 92 % of control.
`O=C1N[C@@H]2C(=C[C@H](O)[C@@H](O)[C@H]2O)c2cc3c(c(O)c21)OCO3`: the T/C (dose: 0.38 mg/kg/injection, schedule: Q01DX009 (ip), vehicle: saline with Tween-80) was 111 % of control; the T/C (dose: 0.38 mg/kg/injection, schedule: Q04DX004 (ip), vehicle: saline with Tween-80) is 91 % of control; the T/C (dose: 0.75 mg/kg/injection, schedule: Q04DX004 (ip), vehicle: saline with Tween-80) is 102 % of control and 110 % of control; the T/C (dose: 1.5 mg/kg/injection, schedule: Q01DX009 (ip), vehicle: saline with Tween-80) was 123 % of control; the T/C (dose: 1.5 mg/kg/injection, schedule: Q04DX004 (ip), vehicle: saline with Tween-80) is 96 % of control and 119 % of control; the T/C (dose: 3.0 mg/kg/injection, schedule: Q04DX004 (ip), vehicle: saline with Tween-80) is 107 % of control.
Take `COc1cc2cc(c1Cl)N(C)C(=O)C[C@H](OC(=O)[C@H](C)N(C)C(C)=O)[C@]1(C)O[C@H]1[C@H](C)[C@@H]1C[C@@](O)(NC(=O)O1)[C@H](OC)C=C/C=C(\C)C2`: the T/C by setting is: (dose: 18.75 micrograms/kg/injection, schedule: Q04DX004 (ip), vehicle: saline) 101 % of control; (dose: 37.5 micrograms/kg/injection, schedule: Q04DX004 (ip), vehicle: saline) 103 % of control and 119 % of control; (dose: 37.5 micrograms/kg/injection, schedule: Q04DX005 (ip), vehicle: saline) 108 % of control and 217 % of control; (dose: 75.0 micrograms/kg/injection, schedule: Q04DX004 (ip), vehicle: saline) 112 % of control; (dose: 75.0 micrograms/kg/injection, schedule: Q04DX005 (ip), vehicle: saline) 119 % of control; (dose: 150.0 micrograms/kg/injection, schedule: Q04DX004 (ip), vehicle: saline) 114 % of control. Also, the T/C (dose: 300.0 micrograms/kg/injection, schedule: Q04DX004 (ip), vehicle: saline) is 114 % of control.
As for `NC(Cn1ccc(=O)c(O)c1)C(=O)O` (centres undefined), the T/C is, setting by setting: (dose: 75.0 mg/kg/injection, schedule: Q04DX004 (ip), vehicle: saline) 100 % of control; (dose: 150.0 mg/kg/injection, schedule: Q04DX004 (ip), vehicle: saline) 109 % of control; (dose: 300.0 mg/kg/injection, schedule: Q04DX004 (ip), vehicle: saline) 103 % of control; (dose: 600.0 mg/kg/injection, schedule: Q04DX004 (ip), vehicle: saline) 118 % of control; (dose: 1200.0 mg/kg/injection, schedule: Q04DX004 (ip), vehicle: saline) 113 % of control.
As to `COc1ccc(NC(=O)C2C(=O)C(=O)N(c3ccc(OC)cc3OC)C2=O)c(OC)c1` (centres undefined), the T/C reads like this: under setting [4], 100 % of control; (dose: 100.0 mg/kg/injection, schedule: Q04DX004 (ip), vehicle: Klucel (hydroxypropylcellulose) (HPC)) 100 % of control; under setting [5], 97 % of control.
Consider `CCOC(=O)c1cn(C)c2c1C(=O)C(C(=O)OCC)CC(=O)N2` (centres undefined), for which the T/C runs as follows: (dose: 31.25 mg/kg/injection, schedule: Q04DX004 (ip), vehicle: saline + Tween-80 + alcohol) 100 % of control; (dose: 62.5 mg/kg/injection, schedule: Q04DX004 (ip), vehicle: saline + Tween-80 + alcohol) 101 % of control; (dose: 125.0 mg/kg/injection, schedule: Q04DX004 (ip), vehicle: saline + Tween-80 + alcohol) 94 % of control; (dose: 250.0 mg/kg/injection, schedule: Q04DX004 (ip), vehicle: saline + Tween-80 + alcohol) 92 % of control.
On to `Nc1ccn(C2CC(N)C(CO)O2)c(=O)n1` (centres undefined), for which the T/C reads like this: under setting [6], 109 % of control; under setting [7], 118 % of control and 120 % of control; under setting [8], 121 % of control and 124 % of control; (dose: 800.0 mg/kg/injection, schedule: Q04DX004 (ip), vehicle: water) 163 % of control.

The values above are taken from PubChem BioAssay AID292 (DTP/NCI, 2004).
